Test results published in ChEMBL document CHEMBL1138709, “Biological evaluation of novel estrogen-platinum(II) hybrid molecules on uterine and ovarian cancers-molecular modeling studies” (Bioorg Med Chem Lett, 2004).

What was measured:
[1] = biological target: T1, Estrogen receptor (Homo sapiens, UniProt Q92731+P03372); test: Inhibition of estrogen dependent human uterus cancer RL-95-2 cell proliferation; format: functional
[2] = biological target: T1, Estrogen receptor; test: Inhibition of estrogen dependent human uterus cancer Ishikawa cell proliferation; format: functional, cell-based
[3] = inhibitory concentration against estrogen independent human uterus cancer cell line KLE; format: functional, cell-based; settings: cancer cell lines
[4] = biological target: T1, Estrogen receptor; test: Inhibition of estrogen dependent human ovarian cancer OVCAR-3 cell proliferation; format: functional, cell-based
[5] = inhibitory concentration against estrogen independent human uterus cancer cell line HEC-1-A; format: functional, cell-based; settings: cancer cell lines
[6] = biological target: T1, Estrogen receptor; test: Inhibition of estrogen dependent human ovarian cancer SKOV-3 cell proliferation; format: functional, cell-based; settings: sk-ov-3
[7] = system: HeLa; test: inhibitory concentration against estrogen independent human uterus cancer cell line HeLa; format: functional, cell-based
[8] = system: A2780; test: inhibitory concentration against estrogen independent human ovarian cancer cell line A2780cp; format: functional, cell-based
[9] = system: A2780; test: inhibitory concentration against estrogen independent human ovarian cancer cell line A2780wt; format: functional, cell-based

Sequence: CISPLATIN
- IC50 [1]: 10.3 µM
- IC50 [2]: 7.9 µM
- IC50 [3]: 12.5 µM
- IC50 [4]: 2500 nM
- IC50 [5]: 11.7 µM
- IC50 [6]: 5.8 µM
- IC50 [7]: 3.6 µM
- IC50 [8]: 6.5 µM
- IC50 [9]: 700 nM
